The values below come from patent US20240034743A9, “TRICYCLIC COMPOUNDS AS EGFR INHIBITORS” (QILU PHARMACEUTICAL CO., LTD., priority 2020, published 2024).

Like-named read-outs stand apart in the source and are kept apart here.

Assay [1] concerns A431 cells (EGFR WT). In words: A431 cell proliferation inhibition assay (CellTiter-Glo). It is filed as cell-based. The conditions noted are these: Homo sapiens. An outline of the steps:
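Seeded cells grown 24 h, then exposed 72 h (37° C, 5% CO2) to graded compound dilutions at 0.1% DMSO final. Viability read by CellTiter-Glo luminescence after 30 min at room temperature; IC50 fitted from the dose curve.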
Background: Cellular ATP, detected with luciferase, serves as a proxy for viable cell number.

Assay [2] relates to Ba/F3_L858R/T790M/C797S cells. Kind of assay: Ba/F3_L858R/T790M/C797S cell proliferation inhibition assay (CellTiter-Glo). The format is cell-based. The conditions noted are these: Mus musculus. An outline of the steps:
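Ba/F3 cells engineered to carry EGFR L858R/T790M/C797S, seeded at 700 cells/well, exposed to serially diluted compound (0.1% DMSO final) for 72 h at 37 °C, 5% CO2. Viability read by CellTiter-Glo luminescence after 30 min at room temperature; IC50 from dose-response fit.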

Assay [3] addresses EGFR WT (wild type EGFR) (Homo sapiens (Human), UniProt P00533). In words: In vitro enzymatic TR-FRET (HTRF KinEASE-TK) kinase assay, EGFR WT. It is filed as biochemical. The conditions noted are these: kinase activity, TR-FRET; read-out: EGFR (WT) IC50. The procedure, abridged: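 Recombinant enzyme preincubated with compound 10 min at room temperature in kinase buffer with 5 mM MgCl2, 1 mM MnCl2, 1 mM DTT. Biotinylated TK substrate plus ATP then added for 40 min. HTRF detection (Sa-XL665, Cryptate antibody) for 1 h; IC50 from 665/615 nm ratio.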
In general terms: In TR-FRET formats the signal depends on donor and acceptor labels being close together.

For assay [4], the target named is EGFR L858R/T790M/C797S (Homo sapiens (Human), UniProt P00533, C797S/L858R/T790M). Kind of assay: In vitro enzymatic TR-FRET (HTRF KinEASE-TK) kinase assay, EGFR L858R/T790M/C797S. Particulars: kinase activity. It is filed as biochemical. The protocol: (I) In Vitro Enzymatic Experiment for EGFR WT and EGFR L858R/T790M/C797S
Chain of EGFR L858R/T790M/C797S (P00533 25-1210 T790M/C797S/L858R): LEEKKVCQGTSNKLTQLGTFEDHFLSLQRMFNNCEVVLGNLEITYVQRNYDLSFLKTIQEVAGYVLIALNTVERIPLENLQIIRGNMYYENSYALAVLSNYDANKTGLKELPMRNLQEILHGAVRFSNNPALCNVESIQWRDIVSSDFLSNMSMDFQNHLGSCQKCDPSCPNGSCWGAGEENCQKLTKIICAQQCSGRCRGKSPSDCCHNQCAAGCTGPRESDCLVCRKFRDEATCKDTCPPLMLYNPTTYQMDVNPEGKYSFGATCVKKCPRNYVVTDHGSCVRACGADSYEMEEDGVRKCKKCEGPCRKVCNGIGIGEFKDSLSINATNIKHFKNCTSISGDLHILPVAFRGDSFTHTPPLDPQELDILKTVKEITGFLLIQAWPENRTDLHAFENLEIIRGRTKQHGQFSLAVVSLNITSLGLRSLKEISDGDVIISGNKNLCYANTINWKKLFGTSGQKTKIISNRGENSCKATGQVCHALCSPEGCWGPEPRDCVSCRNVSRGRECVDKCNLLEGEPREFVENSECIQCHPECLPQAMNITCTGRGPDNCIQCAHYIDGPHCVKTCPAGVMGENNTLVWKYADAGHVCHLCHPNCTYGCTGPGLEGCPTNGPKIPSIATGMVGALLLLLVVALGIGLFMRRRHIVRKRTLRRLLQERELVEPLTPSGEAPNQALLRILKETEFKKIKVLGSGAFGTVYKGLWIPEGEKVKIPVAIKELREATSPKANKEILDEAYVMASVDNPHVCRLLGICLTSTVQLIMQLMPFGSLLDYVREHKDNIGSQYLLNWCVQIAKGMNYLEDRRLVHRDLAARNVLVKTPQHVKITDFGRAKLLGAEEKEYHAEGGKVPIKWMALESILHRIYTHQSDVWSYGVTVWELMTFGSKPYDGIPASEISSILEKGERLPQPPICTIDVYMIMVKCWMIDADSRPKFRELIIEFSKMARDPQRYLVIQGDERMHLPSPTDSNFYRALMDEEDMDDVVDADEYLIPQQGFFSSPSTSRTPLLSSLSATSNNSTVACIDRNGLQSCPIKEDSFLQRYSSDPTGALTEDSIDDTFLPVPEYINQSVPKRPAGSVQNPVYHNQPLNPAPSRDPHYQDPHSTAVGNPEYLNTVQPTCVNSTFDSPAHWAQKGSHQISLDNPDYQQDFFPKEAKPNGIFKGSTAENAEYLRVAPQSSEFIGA
In the assay, the inhibition effect of the compound on the kinase activity of EGFR WT (wild type EGFR) and EGFR L858R/T790M/C797S was tested by adopting a time-resolved fluorescence resonance energy transfer (TR-FRET) method, and half maximal inhibitory concentration IC50 of the compound on the kinase activity of EGFR was obtained.
EGFR recombinase and EGFR L858R/T790M/C797S recombinase, purchased from Signalchem.
HTRF KinEASE-TK kit, purchased from Cisbio.
DTT, MnCl2, and MgCl2, purchased from Sigma.
ATP, purchased from Promega.
Brigatinib, purchased from Selleck.
1) 1× working solution was prepared: 5 mM MgCl2; 1 mM DTT; 1 mM MnCl2 and 1× kinase buffer (in kit).
2) […] of gradiently-diluted compound was transferred to a 384-well plate using Echo 550 (Labcyte).
3) 5 μL of 2× EGFR WT or EGFR L858R/T790M/C797S recombinase solution was added to the 384-well plate, and the plate was incubated at room temperature for 10 min.
4) 5 μL of 2× TK-substrate-biotin substrate solution (containing ATP) was added to the 384-well plate, and the plate was incubated at room temperature for 40 min.
5) 5 μL of assay solution containing Sa-XL 665 HTRF and 5 μL of TK-antibody-Cryptatewas were added to the plate, and the plate was incubated at room temperature for 1 h.
6) The fluorescence signal values at 615 nm and 665 nm were measured for each well using an Envision microplate reader (PerkinElmer).
7) The ratio of fluorescence signal values at 665 nm and 615 nm was calculated for each well.
8) Data analysis was performed using GraphPad Prism software to give the IC50 for compounds.

In assay [5] the test system is Ba/F3_Del19/T790M/C797S cells. In words: Ba/F3_Del19/T790M/C797S cell proliferation inhibition assay (CellTiter-Glo). It is filed as cell-based. Particulars: Mus musculus. An outline of the steps: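 Ba/F3 cells carrying EGFR Del19/T790M/C797S were seeded at 700 cells/well and exposed to serially diluted compound (0.1% DMSO final) for 72 h at 37° C. Viability was read by CellTiter-Glo luminescence to give IC50.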

Where [6] appears, read: A-431, 72 h, read-out: A431 EGFR WT IC50(nM).
Where [7] appears, read: BaF3, 72 h, read-out: Ba/F3 (L858R/T790M/C797S) IC50(nM).
[8] abbreviates: BaF3, 72 h, read-out: Ba/F3 (Del19/T790M/C797S) IC50(nM).
Setting [9] is: A-431, cell proliferation, 72 h, CellTiter-Glo, read-out: A431 EGFR WT IC50.
[10] abbreviates: BaF3, cell proliferation, 72 h, CellTiter-Glo, read-out: Ba/F3 (L858R/T790M/C797S) IC50.
The mark [11] stands for this setting: BaF3, cell proliferation, 72 h, CellTiter-Glo, read-out: Ba/F3 (Del19/T790M/C797S) IC50.

Chain of EGFR WT (wild type EGFR) (P00533 25-1210): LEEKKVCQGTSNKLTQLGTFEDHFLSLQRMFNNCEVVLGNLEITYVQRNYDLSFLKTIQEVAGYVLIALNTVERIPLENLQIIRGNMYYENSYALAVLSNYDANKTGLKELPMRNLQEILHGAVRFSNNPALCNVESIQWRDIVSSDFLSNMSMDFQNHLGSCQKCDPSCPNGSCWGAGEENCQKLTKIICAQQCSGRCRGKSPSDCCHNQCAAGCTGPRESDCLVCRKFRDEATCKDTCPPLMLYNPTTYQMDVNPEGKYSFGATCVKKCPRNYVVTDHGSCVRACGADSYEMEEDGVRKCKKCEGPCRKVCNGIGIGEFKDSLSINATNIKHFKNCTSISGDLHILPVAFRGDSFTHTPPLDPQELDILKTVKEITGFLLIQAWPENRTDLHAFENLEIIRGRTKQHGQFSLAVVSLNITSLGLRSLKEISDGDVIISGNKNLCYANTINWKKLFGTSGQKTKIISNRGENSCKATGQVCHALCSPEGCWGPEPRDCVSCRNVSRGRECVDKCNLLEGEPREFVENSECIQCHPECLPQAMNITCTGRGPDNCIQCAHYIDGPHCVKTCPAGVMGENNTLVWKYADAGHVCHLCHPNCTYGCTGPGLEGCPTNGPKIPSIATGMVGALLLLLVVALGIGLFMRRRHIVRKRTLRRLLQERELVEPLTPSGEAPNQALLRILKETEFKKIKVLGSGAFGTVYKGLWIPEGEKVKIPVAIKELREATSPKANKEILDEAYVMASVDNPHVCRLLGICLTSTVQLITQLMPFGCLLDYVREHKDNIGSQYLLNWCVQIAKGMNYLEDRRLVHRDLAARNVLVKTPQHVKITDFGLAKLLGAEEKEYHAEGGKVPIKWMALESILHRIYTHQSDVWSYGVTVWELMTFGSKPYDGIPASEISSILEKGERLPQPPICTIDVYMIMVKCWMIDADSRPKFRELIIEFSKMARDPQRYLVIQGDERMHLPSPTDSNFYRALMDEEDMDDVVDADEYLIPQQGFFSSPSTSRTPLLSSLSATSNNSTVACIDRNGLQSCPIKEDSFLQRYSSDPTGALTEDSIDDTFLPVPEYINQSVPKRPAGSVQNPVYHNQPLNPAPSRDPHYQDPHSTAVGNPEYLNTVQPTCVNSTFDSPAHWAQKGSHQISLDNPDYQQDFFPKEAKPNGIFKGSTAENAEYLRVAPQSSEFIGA

`COc1nc2c(cc1Nc1ncc(Br)c(Nc3ccc4nccnc4c3P(C)(C)=O)n1)-c1cnn(C)c1CCN2C(C)C` [Compound 82]: the IC50 in assay [1] (setting [6]) was over 1000 nM; in assay [2] (setting [7]), 10 to 50 nM; in assay [3], 1 to 10 nM; in assay [4], 1 to 10 nM; in assay [5] (setting [8]), 10 to 50 nM.
Turning to `COc1cc2c(cc1Nc1ncc(Br)c(Nc3cccnc3P(C)(C)=O)n1)-c1cnn(C)c1CCN2C(C)C` [Compound 83], the IC50 in assay [1] (setting [9]) was 100 to 1000 nM; in assay [2] (setting [10]) it was 10 to 50 nM; in assay [3] it was 1 to 10 nM; in assay [4], under 1 nM; in assay [5] (setting [11]) it was under 10 nM.
Consider `COc1nc2c(cc1Nc1ncc(Br)c(Nc3ccc4nccnc4c3NS(C)(=O)=O)n1)-c1cnn(C)c1CCN2C(C)C` [Compound 86], for which the IC50 is 100 to 1000 nM in assay [1] (setting [9]); 10 to 50 nM in assay [2] (setting [10]); 1 to 10 nM in assay [3]; 1 to 10 nM in assay [4]; under 10 nM in assay [5] (setting [11]).
On to `COc1cc2c(cc1Nc1ncc(Br)c(Nc3ccc4nccnc4c3P3(=O)CCN(C)CC3)n1)-c1cnn(C)c1CCN2C(C)C` [Compound 91], for which the IC50 is 100 to 1000 nM in assay [1] (setting [9]); 10 to 50 nM in assay [2] (setting [10]); under 1 nM in assay [3]; under 1 nM in assay [4]; under 10 nM in assay [5] (setting [11]).
As to `COc1cc2c(cc1Nc1ncc(Br)c(Nc3ccccc3P(C)(C)=O)n1)-c1cccnc1CCN2C` [Compound 99], the IC50 in assay [1] (setting [9]) is 100 to 1000 nM; in assay [2] (setting [10]) it was 10 to 50 nM; in assay [3], 50 to 100 nM; in assay [4], 1 to 10 nM; in assay [5] (setting [11]) it was 10 to 50 nM.
Regarding `COc1cc2c(cc1Nc1nccc(Nc3ccccc3P(C)(C)=O)n1)-c1cnn(C)c1CCN2C(C)C` [Compound 102], the IC50 in assay [1] (setting [9]) is over 1000 nM; in assay [2] (setting [10]) it was 100 to 1000 nM; in assay [3], 10 to 50 nM; in assay [4], under 1 nM; in assay [5] (setting [11]) it was 50 to 100 nM.
Taken in the same sequence, the figures for `COc1nc2c(cc1Nc1ncc(Br)c(Nc3ccc4nccnc4c3NS(C)(=O)=O)n1)-c1cnn(C)c1CCN2C` [Compound 107] were 100 to 1000 nM, under 10 nM, under 1 nM, under 1 nM and under 10 nM.
For the compound `COc1cc2c(cc1Nc1ncc(Br)c(Nc3ccc4nccnc4c3P(C)(C)=O)n1)-c1cccnc1CCN2C` [Compound 108], the IC50 was 100 to 1000 nM in assay [1] (setting [9]); 10 to 50 nM in assay [2] (setting [10]); 10 to 50 nM in assay [3]; under 1 nM in assay [4]; under 10 nM in assay [5] (setting [11]).
In the case of `COc1cc2c(cc1Nc1ncc(Br)c(Nc3ccc4nccnc4c3NS(C)(=O)=O)n1)-c1cccnc1CCN2C(C)C` [Compound 116], the IC50 in assay [1] (setting [9]) is 100 to 1000 nM; in assay [2] (setting [10]), 50 to 100 nM; in assay [3] it was 50 to 100 nM; in assay [4], 1 to 10 nM; in assay [5] (setting [11]), 10 to 50 nM.
With `COc1cc2c(cc1Nc1ncc(Br)c(Nc3ccc4nccnc4c3N3CCCS3(=O)=O)n1)-c1cnn(C)c1CCN2C(C)C` [Compound 118], the IC50 in assay [1] (setting [9]) lay in the range of 100 to 1000 nM; in assay [2] (setting [10]), 10 to 50 nM; in assay [3], 10 to 50 nM; in assay [4] it was 1 to 10 nM; in assay [5] (setting [11]) it was 10 to 50 nM.
Take `COc1cc2c(cc1Nc1ncc(Br)c(Nc3ccc4nccnc4c3NS(C)(=O)=O)n1)-c1cnn(C)c1CCN2C(C)(C)CF` [Compound 120]: the IC50 in assay [1] (setting [9]) lay within 100 to 1000 nM; in assay [2] (setting [10]), 10 to 50 nM; in assay [3] it was 10 to 50 nM; in assay [4] it was 1 to 10 nM; in assay [5] (setting [11]), 10 to 50 nM.
As to `COc1cc2c(cc1Nc1ncc(Br)c(Nc3ccccc3NS(C)(=O)=O)n1)-c1cnn(C)c1CCN2` [Compound 121], the IC50 in assay [1] (setting [6]) was 100 to 1000 nM; in assay [2] (setting [7]), under 10 nM; in assay [3], 100 to 1000 nM; in assay [4] it was 1 to 10 nM; in assay [5] (setting [8]) it was under 10 nM.
`COc1cc2c(cc1Nc1ncc(Br)c(Nc3ccccc3N(C(C)C)S(C)(=O)=O)n1)-c1cnn(C)c1CCN2` [Compound 122]: the IC50 in assay [1] (setting [6]) was 100 to 1000 nM; in assay [2] (setting [7]) it was 10 to 50 nM; in assay [3], 50 to 100 nM; in assay [4] it was 1 to 10 nM; in assay [5] (setting [8]), 10 to 50 nM.
